Measured values reported in patent US5912264A, “6-halo-or nitrate-substituted paclitaxels” (Bristol-Myers Squibb Company, priority 1998, dated 1999).
Like-named read-outs stand apart in the source and are kept apart here.

Assays:
[1] = system: HCT-116 human colon carcinoma cells; test: Cytotoxicity (in vitro) in HCT-116 human colon carcinoma cells, MTS assay; type: cell-based; details: read-out: IC50 (nM) HCT 116
Method: Cytoxicity was assessed in HCT-116 human colon carcinoma cells by MTS (3-(4,5-dimethylthiazol-2-yl)-5-(3-carboxymethoxyphenyl)-2-(4-sulphenyl)-2H-tetrazolium, inner salt) assay as reported in T. L. Riss, et. al., "Comparison of MTT, XTT, and a novel tetrazolium compound MTS for in vitro proliferation and chemosensitivity assays.," Mol. Biol. Cell 3 (Suppl.):184a, 1992. Cells were plated at 4,000 cell/well in 96 well microtiter plates and 24 hours later drugs were added and serial diluted. The cells were incubated at 37° form 72 hours at which time the tetrazolium dye, MTS at 333 μg/ml (final concentration), in combination with the electron coupling agent phenazine methosulfate at 25 μM (final concentration) was added. A dehydrogenase enzyme in live cells reduces the MTS to a form that absorbs light at […] which can be quantitated spectrophotometrically. The greater the absorbance the greater the number of live cells. The results are expressed as an IC50, which is the drug concentration required to inhibit cell proliferation (i.e. absorbance at 450 nm) to 50% of that of untreated control cells. The IC50 values for compounds evaluated in this assay are evaluated in Table I.

[2] = system: M109 lung carcinoma; test: Mice M109 Model (In-Vivo), median survival time % T/C; set-up: species or system mice (Balb/c x DBA/2 F1 hybrid); details: Mus musculus, ip, days 1, 5 and 9 or days 5 and 8 post-implant, median survival T/C x 100
Method: Balb/c x DBA/2 F1 hybrid mice were implanted intraperitoneally, as described by William Rose in Evaluation of Madison 109 Lung Carcinoma as a Modelfor Screening Antitumor Drugs, Cancer Treatment Reports, 65, No. 3-4 (1981), with 0.5 mL of a 2% (w/v) brei of M109 lung carcinoma.
Mice were treated with compounds under study by receiving intraperitoneal injections of various doses on either days 1, 5 and 9 post-tumor implant or days 5 and 8 post-implant. Mice were followed daily for survival until approximately 75-90 days post-tumor implant. One group of mice per experiment remained untreated and served as the control group.
Median survival times of compound-treated (T) mice were compared to the median survival time of the control (C) mice. The ratio of the two values for each compound-treated group of mice was multiplied by 100 and expressed as a percentage (i.e. % T/C) in the following Table II for representative compounds.

[3] = in vivo animal models; cited from earlier work
[4] = HCT-116, 72 hours, MTS, inhibition of cell proliferation to 50% of untreated control

Structure (SMILES)	IC50 ([1]; HCT-116, 72 h)	response vs control in vivo at 100 mg/kg [2]	further results
COCO[C@H]1[C@H](F)[C@H]2OC[C@@]2(OC(C)=O)[C@H]2[C@H](OC(=O)c3ccccc3)[C@]3(O)C[C@H](OC(=O)[C@H](O)[C@@H](NC(=O)OC(C)(C)C)c4ccccc4)C(C)=C([C@@H](OC(C)=O)C(=O)[C@@]21C)C3(C)C [Il, 3'N-desbenzoyl-3'N-t-Butoxycarbonyl-7-O-methoxymethyl-6a-Fluoropaclitaxel]	2.5 nM	–	response vs control in vivo at 50 mg/kg [2]: 187%
CC(=O)O[C@H]1C(=O)[C@@]2(C)[C@H]([C@H](OC(=O)c3ccccc3)[C@]3(O)C[C@H](OC(=O)[C@H](O)[C@@H](NC(=O)c4ccccc4)c4ccccc4)C(C)=C1C3(C)C)[C@]1(OC(C)=O)CO[C@@H]1[C@@H](O[N+](=O)[O-])[C@@H]2O [If, paclitaxel-6α-nitrate]	1.5 nM	132%	–
CO[C@H]1[C@H](F)[C@H]2OC[C@@]2(OC(C)=O)[C@H]2[C@H](OC(=O)c3ccccc3)[C@]3(O)C[C@H](OC(=O)[C@H](O)[C@@H](NC(=O)c4ccccc4)c4ccccc4)C(C)=C([C@@H](OC(C)=O)C(=O)[C@@]21C)C3(C)C [Id, 7-O-Methyl-6α-Fluoropaclitaxel]	0.83 nM	147%	–
CC(=O)O[C@H]1C(=O)[C@]2(C)C[C@@H](I)[C@H]3OC[C@@]3(OC(C)=O)[C@H]2[C@H](OC(=O)c2ccccc2)[C@]2(O)C[C@H](OC(=O)[C@H](O)[C@@H](NC(=O)c3ccccc3)c3ccccc3)C(C)=C1C2(C)C [Iq, 7-Deoxy-6-β-Iodopaclitaxel]	2.24 nM	–	response vs control in vivo at 50 mg/kg [2]: 129%
CSCO[C@H]1[C@H](O[N+](=O)[O-])[C@H]2OC[C@@]2(OC(C)=O)[C@H]2[C@H](OC(=O)c3ccccc3)[C@]3(O)C[C@H](OC(=O)[C@H](O)[C@@H](NC(=O)c4ccccc4)c4ccccc4)C(C)=C([C@@H](OC(C)=O)C(=O)[C@@]21C)C3(C)C [Ih, 7-O-Methylthiomethylpaclitaxel-6α-nitrate]	7.35 nM	–	response vs control in vivo at 195 mg/kg [2]: 132%
CC(=O)O[C@H]1C(=O)[C@]2(C)C[C@@H](Cl)[C@H]3OC[C@@]3(OC(C)=O)[C@H]2[C@H](OC(=O)c2ccccc2)[C@]2(O)C[C@H](OC(=O)[C@H](O)[C@@H](NC(=O)c3ccccc3)c3ccccc3)C(C)=C1C2(C)C [Io, 7-Deoxy-6-β-Chloropaclitaxel]	–	–	IC50 [1, 4]: 0.62 nM; response vs control in vivo at 25 mg/kg [2]: 166%
CC(=O)O[C@H]1C(=O)[C@@]2(C)[C@H]([C@H](OC(=O)c3ccccc3)[C@]3(O)C[C@H](OC(=O)[C@H](O)[C@@H](NC(=O)c4ccccc4)c4ccccc4)C(C)=C1C3(C)C)[C@]1(OC(C)=O)CO[C@@H]1C[C@@H]2O [paclitaxel]	1.53 to 2.73 nM	–	antitumor activity [3]: excellent antitumor activity in in vivo animal models
CC(=O)O[C@H]1C(=O)[C@@]2(C)[C@H]([C@H](OC(=O)c3ccccc3)[C@]3(O)C[C@H](OC(=O)[C@H](O)[C@@H](NC(=O)c4ccccc4)c4ccccc4)C(C)=C1C3(C)C)[C@]1(OC(C)=O)CO[C@@H]1[C@@H](Br)[C@@H]2O [Ie, 6α-Bromopaclitaxel]	–	–	IC50 [1, 4]: 2.6 nM; response vs control in vivo at 200 mg/kg ([2]; dose 200 mg/kg): 214%
CC(=O)O[C@H]1C(=O)[C@@]2(C)[C@H]([C@H](OC(=O)c3ccccc3)[C@]3(O)C[C@H](OC(=O)[C@H](O)[C@@H](NC(=O)c4ccccc4)c4ccccc4)C(C)=C1C3(C)C)[C@]1(OC(C)=O)CO[C@@H]1[C@@H](F)[C@@H]2O [Ia, 6α-Fluoropaclitaxel]	1.4 nM	–	–
COCO[C@H]1[C@H](F)[C@H]2OC[C@@]2(OC(C)=O)[C@H]2[C@H](OC(=O)c3ccccc3)[C@]3(O)C[C@H](OC(=O)[C@H](O)[C@@H](NC(=O)c4ccccc4)c4ccccc4)C(C)=C([C@@H](OC(C)=O)C(=O)[C@@]21C)C3(C)C [Ib, 7-O-Methoxymethyl-6α-Fluoropaclitaxel]	1.3 nM	162%	–
CSCO[C@H]1[C@H](F)[C@H]2OC[C@@]2(OC(C)=O)[C@H]2[C@H](OC(=O)c3ccccc3)[C@]3(O)C[C@H](OC(=O)[C@H](O)[C@@H](NC(=O)c4ccccc4)c4ccccc4)C(C)=C([C@@H](OC(C)=O)C(=O)[C@@]21C)C3(C)C [Ic, 7-O-Meththiomethyl-6α-Fluoropaclitaxel]	3.3 nM	147%	–
CC(=O)O[C@H]1C(=O)[C@]2(C)C[C@@H](Br)[C@H]3OC[C@@]3(OC(C)=O)[C@H]2[C@H](OC(=O)c2ccccc2)[C@]2(O)C[C@H](OC(=O)[C@H](O)[C@@H](NC(=O)c3ccccc3)c3ccccc3)C(C)=C1C2(C)C [Ip, 7-Deoxy-6-β-Bromopaclitaxel]	0.72 nM	–	response vs control in vivo at 50 mg/kg [2]: 172%
CC(=O)O[C@H]1C(=O)[C@@]2(C)[C@H]([C@H](OC(=O)c3ccccc3)[C@]3(O)C[C@H](OC(=O)[C@H](O)[C@@H](NC(=O)OC(C)(C)C)c4ccccc4)C(C)=C1C3(C)C)[C@]1(OC(C)=O)CO[C@@H]1[C@@H](F)[C@@H]2O [Ik, 3'N-desbenzoyl-3'N-t-Butoxycarbonyl-6α-Fluoropaclitaxel]	0.2 nM	269%	–
CC(=O)O[C@H]1C(=O)[C@@]2(C)[C@H]([C@H](OC(=O)c3ccccc3)[C@]3(O)C[C@H](OC(=O)[C@H](O)[C@@H](NC(=O)c4ccccc4)c4ccccc4)C(C)=C1C3(C)C)[C@]1(OC(C)=O)CO[C@@H]1[C@@H](Cl)[C@@H]2O [Ij, 6-α-Chloropaclitaxel]	–	203%	IC50 [1, 4]: 1.2 nM
COCO[C@H]1[C@H](O[N+](=O)[O-])[C@H]2OC[C@@]2(OC(C)=O)[C@H]2[C@H](OC(=O)c3ccccc3)[C@]3(O)C[C@H](OC(=O)[C@H](O)[C@@H](NC(=O)c4ccccc4)c4ccccc4)C(C)=C([C@@H](OC(C)=O)C(=O)[C@@]21C)C3(C)C [Ii, 7-O-Methoxymethylpaclitaxel-6α-nitrate]	4.95 nM	–	response vs control in vivo at 195 mg/kg [2]: 141%
CO[C@H]1[C@H](F)[C@H]2OC[C@@]2(OC(C)=O)[C@H]2[C@H](OC(=O)c3ccccc3)[C@]3(O)C[C@H](OC(=O)[C@H](O)[C@@H](NC(=O)OC(C)(C)C)c4ccccc4)C(C)=C([C@@H](OC(C)=O)C(=O)[C@@]21C)C3(C)C [In, 3'N-desbenzoyl-3'N-t-Butoxycarbonyl-7-O-methyl-6α-Fluoropaclitaxel]	–	–	response vs control in vivo at 25 mg/kg [2]: 144%
CSCO[C@H]1[C@H](F)[C@H]2OC[C@@]2(OC(C)=O)[C@H]2[C@H](OC(=O)c3ccccc3)[C@]3(O)C[C@H](OC(=O)[C@H](O)[C@@H](NC(=O)OC(C)(C)C)c4ccccc4)C(C)=C([C@@H](OC(C)=O)C(=O)[C@@]21C)C3(C)C [Im, 3'N-desbenzoyl-3'N-t-Butoxycarbonyl-7-O-methylthiomethyl-6α-Fluoropaclitaxel]	–	–	IC50 [1, 4]: 1 nM
